We go through seven compounds from patent publication US10633332B2, “Guanidine compounds for removal of oxyanions from aqueous solutions and for carbon dioxide capture” (UT-Battelle, LLC, priority 2010, dated 2020).

Several values for one entry are separate records, joined by “and”; a condition that tells them apart may be missing. Identical values can stand only once. Like-named read-outs stand apart in the source and are kept apart here. Marks after values point to notes of the source that are not given here.

A short description of data set [1]: CO2 release and PyBIG regeneration using concentrated solar power. It counts as physicochemical. The following applies: for Δm: 38 mg sample. Here is the method: Carbon dioxide release and regeneration of PyBIG using concentrated solar power: The CO2 release from the PyBIGH2(CO3)(H2O)4 crystals was carried out by solar heating with a solar oven. The oven consists of a vacuum-insulated borosilicate tube placed in the focal point of two adjustable parabolic reflectors. The temperature inside the tube was monitored with a thermocouple. The PyBIGH2(CO3)(H2O)4 samples (0.038 g, 0.1 mmol) were loaded in 1 mL glass vials, which were placed inside the oven tube. The solar oven was then placed in the full sun and oriented to capture the maximum amount of sunlight. The temperature was ramped to the targeted values of 120° C., 140° C., 150° C., or 160° C. as fast as possible (typically within 3 to 10 minutes), then held within ±2° C. by intermittently moving the oven out of the sun, or/and closing the reflectors. The samples were subsequently removed from the tube, allowed to cool to room temperature, and weighed to determine their mass loss. The resulting yellow solids were analyzed by FTIR to confirm the disappearance of the carbonate and water peaks.
However, considering this transformation is highly endothermic, the possibility of using concentrated solar power to render the process more energy sustainable was explored. For the initial small-scale proof of concept, a solar oven (FIG. 6) was used to heat the PyBIGH2(CO3)(H2O)4 samples (38 mg, 0.1 mmol) at four different temperatures ranging between 120 and 160° C., monitoring the extent of the reactions by the samples' weight loss (Table 7 below). FTIR analyses also corroborated the release of CO2, most evidently noticeable by the disappearance of the strong peak at 1361 cm^−1 corresponding to the stretching mode of the carbonate anion.

A short description of data set [2]: Differential scanning calorimetry of CO2 release. To be noted: DSC, all peaks between 80 and 140° C. integrated. The class given is physicochemical. The text has this: Although the CO2 desorption could theoretically be achieved by running reactions 1-6 in reverse order according to the principle of microscopic reversibility, in reality it would not be feasible as reaction 4 is practically irreversible. Such an approach would also defeat the purpose of avoiding heating the aqueous sorbent. Instead, once the loading is complete, the crystalline PyBIGH2(CO3)(H2O)4 is removed from solution and heated in the solid state to release the CO2 gas and the water vapors. Given the completely different conditions involved, such a gas-solid process must have different energetics compared to the gas-liquid-solid process involved in CO2 absorption. In order to determine the enthalpy of CO2 release, differential scanning calorimetry (DSC) was employed. DSC is a common technique used in thermal analysis of solids. […] As the enthalpy of vaporization for water is 40.65 kJ/mol, more than 90% of the enthalpy of desorption is used for water evaporation. This represents a significant energy penalty that must be accounted for, and which encourages the use of renewable sources of energy, such as concentrated solar power (vide infra), to make the overall DAC process energy more sustainable.
(In general: DSC measures the heat that a sample takes up or gives off during a temperature scan.)

A short description of data set [3]: Carbonate/bicarbonate CO2 capture cycle: crystallization from 1 M NaHCO3. The text has this: Finally, thermal decomposition of PyBIGH2(CO3)(H2O)4 regenerates the PyBIG compound and releases the CO2. […] The resulting mixture was filtered, and the separated crystalline solid was confirmed by PXRD and FTIR to be PyBIGH2(CO3)(H2O)4. […] The entire carbonate separation cycle was run three times, with observed yields for PyBIGH2(CO3)(H2O)4 crystallization of 99.0±0.4%, 97.2±0.6%, and 91.4±0.4%, corresponding to the first, second, and third cycle, respectively. The regeneration of the PyBIG compound was nearly quantitative in each cycle.

Data set [4] can be described thus: Sulfate removal from a calcium sulfate suspension (CaSO4 dissolution cycle). To be noted: overnight, room temperature, pH 6-7, powder X-ray diffraction. How it is done: An example of sulfate removal from a calcium sulfate suspension is shown schematically in FIG. 5. In the first step, the initial CaSO4 solid is treated with an aqueous chloride salt of the compound that results in crystallization of the guanidinium sulfate salt and release of the calcium ions in solution, as soluble CaCl2. In the second step, the insoluble guanidinium sulfate salt is treated with sodium hydroxide base to neutralize the guanidinium cations and release the sulfate ions in solution, as soluble Na2SO4. The resulting solid guanidine compound is then recycled and converted back into guanidinium chloride with aqueous HCl, so it can be reused in another CaSO4 dissolution cycle. Thus, the entire process is done in water (no organic solvents used), and the only chemicals consumed in the overall process are NaOH and HCl, resulting in two aqueous waste streams consisting of calcium chloride and sodium sulfate. The unique aspect of this invention is the employment of a crystallization process to achieve dissolution of CaSO4. Also, this approach is based on anion chelation by guanidinium groups rather than the more common metal chelation, which may be prone to interference from other metals in solution. […] Finally, the recovered BBIG was converted back into the chloride salt by treatment with aqueous hydrochloric acid and recycled for another CaSO4 dissolution cycle.

A short description of data set [5]: Sulfate separation from seawater (35S radiotracer, β liquid scintillation counting). To be noted: for Amount of SO4^2− removed / [SO4^2−] left: initial sulfate 30 mM; for % Sulfate Removed / Sulfate Left: initial sulfate 30 mmol/L. How it is done: The seawater used in the experiment was collected from the gulf stream in the Atlantic Ocean. Prior to use, the water was pre-filtered to remove suspended particulates and small organisms. […] The sulfate concentration in seawater was estimated to be about 30 mM by titration with BaCl2. […] A volume of 0.75 mL of each of these solutions was pipetted into a 2 mL Eppendorf microcentrifuge tube, and 0.75 mL of seawater pre-spiked with the ^35S radiotracer was added. The resulting solution mixtures were mixed for 24 hours using a rotating wheel set at 60 rpm in a temperature-controlled air-box set at 25±0.2° C. […] The radiolabeled ^35S radiotracer is a β emitter, thereby allowing determination of the sulfate concentration of a solution spiked with a known amount of Na2^35SO4 by β liquid scintillation counting. The seawater solutions were pre-spiked with […] of the ^35S radiotracer, as above. […] The volume of the spike solution was determined by factoring in the original activity of the solution and correcting for the short half-life of the ^35S radiotracer. The Na2^35SO4 solution had completed 3.8 half-lives before use in this experiment. […] The resulting mixtures were vigorously shaken to allow for complete dissolution and dispersion of the salt solutions. The samples were then placed on the analyzer and counted for 30 minutes after allowing 60 minutes for dark-adaption.

Data set [6] is described as follows: Aqueous solubility of BBIG salts (gravimetric / UV spectroscopy). To be noted: 25 °C, water, thermodynamic from solid.
Description: The solubility of BBIG-Cl was determined gravimetrically. A saturated solution of BBIG-Cl was obtained by placing an excess of the salt in a 15 mL polypropylene centrifuge tube and adding 2 mL of deionized water (milli-Q). […] One mL of the saturated salt solution was then pipetted into a pre-weighed glass vial containing a magnetic stir bar. The water was then removed under reduced pressure and gentle heating (˜50° C.) while stirring. The resulting solid was left under vacuum overnight to ensure complete removal of the water, prior to weighing the vial.
These solutions were then diluted to ensure the concentrations of the BBIG di-cation were in the concentration range of the calibration curve.
For data set [7] the following is noted: cited from earlier work; for reaction rate of CO2 with the amino acid: 25° C., expected.
For data set [8] the following is noted: aqueous, ˜10 mM.
The nature of data set [9]: Thermodynamic analysis: reaction enthalpies (variable-temperature solubility, pKa, van't Hoff).
The conditions of data set [10]: literature value; cited from earlier work.

For `N=C(N)NN=Cc1cccc(C=NNC(=N)N)n1.O.O.O.O.O=C(O)O` [PyBIGH2(CO3)(H2O)4], the Δm/mi in data set [1] (120° C., 30 min) is reported as −31.6%; in [1] (140° C., 10 min), −34.2%; in data set [1] (150° C., 5 min), −31.6%; in data set [1] (160° C., 2 min), −36.8%. For the same compound, the Δm in data set [1] (120° C., 30 min) is -12 mg; in data set [1] (140° C., 10 min) it was -13 mg; in [1] (150° C., 5 min), -12 mg; in data set [1] (160° C., 2 min), -14 mg. The “overall enthalpy of desorption” value in data set [2] stood at 53.3 ± 0.96 kcal/mol. In addition, the “temperature of heating at which CO2 is released” value (heating the carbonate crystals) was 80-120 °C. Moreover, the decomposition completion (isothermal TGA at 80° C., after 300 minutes) is listed as 77%. In addition, the “time to complete loss of carbon dioxide and water” value (isothermal TGA at 100° C.) is 150 min; the “time to complete loss of carbon dioxide and water” value (isothermal TGA at 120° C.) worked out at 60 min. Also, the mass loss by setting is: (oven, one hour at 120° C.) 34.3%; (temperature-ramped TGA, between 65 and 140° C.) 35.2%. Also, the “yield of PyBIGH2(CO3)(H2O)4 crystallization” value amounted to 99.0±0.4% in data set [3] (first cycle, 1 M NaHCO3, room temperature, four hours); 97.2±0.6% in data set [3] (second cycle); 91.4±0.4% in data set [3] (third cycle).
One may read the solubility as the dissolved amount per volume that the medium holds. In the case of `Cl.Cl.N=C(N)N/N=C/c1ccc(/C=N/NC(=N)N)cc1` [Compound 1], in data set [4], the “conversion of solid CaSO4(H2O)2 into crystalline BBIG-SO4(H2O)2” value was “complete conversion”. The “degree of separation of sulfate from seawater” value in data set [5] was “very high degrees of separation”. The “Amount of SO4^2− removed” value in data set [5] (1 equiv BBIG) came out at 88%; in data set [5] (1.1 equiv BBIG), 95%; in data set [5] (1.5 equiv BBIG), 99%; in data set [5] (2 equiv BBIG) it was 99%. Further, the “[SO4^2−] left” value in data set [5] (1 equiv BBIG) was 3.5 mM; in data set [5] (1.1 equiv BBIG), 1.6 mM; in [5] (1.5 equiv BBIG), 0.3 mM; in data set [5] (2 equiv BBIG), 0.3 mM. Besides, the “% Sulfate Removed” value in data set [5] (compound 15 mmol/L) is 40.8% and 41.8%; in data set [5] (compound 30 mmol/L), 88.7% and 88.0%; in data set [5] (compound 33 mmol/L), 95.6% and 93.6%; in data set [5] (compound 45 mmol/L), 99.0% and 98.9%; in [5] (compound 60 mmol/L) it was 98.9%. Further, the “Sulfate Left” value in data set [5] (compound 15 mmol/L) is 1706 mg/L and 1676 mg/L; in [5] (compound 30 mmol/L) it was 326 mg/L and 347 mg/L; in data set [5] (compound 33 mmol/L) it was 128 mg/L and 185 mg/L; in [5] (compound 45 mmol/L), 28 mg/L and 30 mg/L; in data set [5] (compound 60 mmol/L), 31 mg/L. Also, the solubility at 48 h in data set [6] was 63 mM.
For the compound `Cl.Cl.N=C(N)N/N=C/c1cccc(/C=N/NC(=N)N)n1` [Compound 2], the “degree of separation of sulfate from seawater” value in [5] was “very high degrees of separation”. Also, the “% Sulfate Removed” value is 48.41% and 48.57% in [5] (compound 15 mmol/L); 93.28% and 94.41% in data set [5] (compound 30 mmol/L); 99.72% and 99.60% in [5] (compound 33 mmol/L); 99.94% in data set [5] (compound 45 mmol/L); 99.95% in data set [5] (compound 60 mmol/L). The “Sulfate Left” value in data set [5] (compound 15 mmol/L) is 1487 mg/L and 1482 mg/L; in data set [5] (compound 30 mmol/L) it was 194 mg/L and 161 mg/L; in data set [5] (compound 33 mmol/L), 8 mg/L and 12 mg/L; in data set [5] (compound 45 mmol/L), 1.7 mg/L; in [5] (compound 60 mmol/L) it was 1.5 mg/L.
`CNCC(=O)O` [Sarcosine, sarcosine]: the “reaction rate of CO2 with the amino acid” value in [7] was 18.6 kM/s.
Regarding `N=C(N)N/N=C/c1cccc(/C=N/NC(=N)N)n1` [PyBIG], the “pH of saturated solution” value in [8] is reported as “about 10”. For the setting “TGA-MS”, the “no decomposition of the regenerated compound up to” value was 190 °C. Besides, in [9] (This study), the “ΔH reaction 1 (PyBIG dissolution)” value was 10.2 kcal/mol and the “ΔH reaction 6 (PyBIGH2(CO3)(H2O)4 crystallization)” value is -11.2 kcal/mol. Moreover, in data set [9] (This study, composed from protonation enthalpies and ionization of water), the “ΔH reaction 2 (PyBIG protonation by water)” value is listed as 43.6^a kJ/mol. The “overall enthalpy of CO2 absorption” value in data set [9] (sum of reactions 1-6) was -16.9 kcal/mol.
As usually defined, the pKa is the pH at which an ionisable group is half protonated. For `NCC(=O)O` [Glycine, glycine], in [7], the “reaction rate of CO2 with the amino acid” value is reported as 13.9 kM/s. For the same compound, in data set [10], the pKa was 9.5.
With `[Na+].[OH-]` [NaOH], in [7] (1 M solution), the “flux of CO2 absorbed from air” value is on record as “around 30 μmol/m2/s”.
